Biological target: T1, USP5 (ubiquitin-specific protease 5) (Homo sapiens, UniProt P45974)
T1 sequence (P45974 2-858): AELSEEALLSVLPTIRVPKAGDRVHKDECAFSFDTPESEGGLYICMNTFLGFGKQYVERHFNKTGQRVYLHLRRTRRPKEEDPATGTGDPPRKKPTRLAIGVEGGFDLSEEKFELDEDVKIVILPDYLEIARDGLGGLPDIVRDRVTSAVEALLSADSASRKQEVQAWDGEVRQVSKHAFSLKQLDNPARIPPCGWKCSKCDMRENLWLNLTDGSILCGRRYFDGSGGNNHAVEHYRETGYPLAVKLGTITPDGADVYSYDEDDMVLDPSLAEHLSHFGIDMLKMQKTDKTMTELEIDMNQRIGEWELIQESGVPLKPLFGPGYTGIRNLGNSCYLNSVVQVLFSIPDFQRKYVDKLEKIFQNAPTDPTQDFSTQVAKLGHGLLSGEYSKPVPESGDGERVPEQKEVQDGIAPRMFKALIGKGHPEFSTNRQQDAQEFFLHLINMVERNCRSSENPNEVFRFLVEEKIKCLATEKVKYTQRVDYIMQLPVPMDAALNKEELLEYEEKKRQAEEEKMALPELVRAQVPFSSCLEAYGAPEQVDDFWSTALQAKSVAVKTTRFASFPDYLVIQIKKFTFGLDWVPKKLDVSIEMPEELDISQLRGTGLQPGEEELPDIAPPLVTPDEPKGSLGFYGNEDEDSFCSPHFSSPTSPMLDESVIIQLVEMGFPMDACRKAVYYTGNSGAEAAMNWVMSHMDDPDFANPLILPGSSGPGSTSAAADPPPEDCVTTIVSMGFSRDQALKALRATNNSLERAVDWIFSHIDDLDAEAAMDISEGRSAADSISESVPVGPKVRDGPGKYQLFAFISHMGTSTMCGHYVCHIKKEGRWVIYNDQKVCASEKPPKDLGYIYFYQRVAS
Assay: SPR
Format: binding

Kd: 25.1 µM
Compound: COc1ccc(-c2coc3cc(O)ccc3c2=O)cc1 [Formononetin]
